# Experiments:
# MATIN = assay: Post-emergence herbicidal effect, greenhouse pot test; type: in vivo, Tripleurospermum inodorum
# Summary of the method: (§1)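 Weeds sown in sandy loam, greenhouse-grown 2–3 weeks, then sprayed at one-leaf stage with WP or EC formulations in water plus 0.5% additive at 600 l/ha. Rates 20 to 320 g/ha. Visual rating after about 3 weeks versus untreated controls (100% = plants dead, 0% = like control).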
# SETVI = assay: as above; type: in vivo, Setaria viridis
# Summary of the method: as §1
# PHBPU = assay: as above; type: in vivo, Ipomoea purpurea
# Summary of the method: as §1
# ECHCG = assay: as above; type: in vivo, Echinochloa crus-galli
# Summary of the method: as §1
# DIGSA = assay: as above; type: in vivo, Digitaria sanguinalis; details: visual rating about 3 weeks after treatment
# Summary of the method: as §1
# LOLRI = assay: as above; type: in vivo, Lolium rigidum
# Summary of the method: as §1
# ALOMY = assay: as above; type: in vivo, Alopecurus myosuroides; details: visual rating about 3 weeks after treatment
# Summary of the method: as §1
# ABUTH = assay: as above; type: in vivo, Abutilon theophrasti; details: visual rating about 3 weeks after treatment
# Summary of the method: as §1
# VIOTR = assay: as above; type: in vivo, Viola tricolor
# Summary of the method: as §1
# POLCO = assay: as above; type: in vivo, Fallopia convolvulus
# Summary of the method: as §1
# AVEFA = assay: as above; type: in vivo, Avena fatua; details: visual rating about 3 weeks after treatment
# Summary of the method: as §1
# KCHSC = assay: as above; type: in vivo
# Summary of the method: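 Visual rating of activity against untreated plants (100% = plants died, 0% = no effect), done about 3 weeks after treatment. Compounds applied at 20–320 g/ha as aqueous spray (600 l/ha, 0.5% additive) from WP or EC formulations onto one-leaf-stage plants grown in sandy loam under greenhouse conditions.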
# VERPE = assay: as above; type: in vivo, Veronica persica
# Summary of the method: as §1
# AMARE = assay: as above; type: in vivo, Amaranthus retroflexus; details: visual rating about 3 weeks after treatment
# Summary of the method: as §1
# ZEAMX = assay: Post-emergence herbicidal effect and crop plant compatibility, greenhouse pot test; type: in vivo, Zea mays; details: one-leaf stage, rated visually after about 3 weeks vs untreated controls
# Summary of the method: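 Visual % activity scored roughly 3 weeks post-spray against untreated plants, where 100% means death and 0% equals control. Plants were treated at the one-leaf stage, 2 to 3 weeks after sowing in sandy loam, at 20 to 320 g/ha.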
# [1] = Setaria viridis, 504 h, read-out: Post-emergence effect against SETVI in %
# [2] = Abutilon theophrasti, 504 h, read-out: Post-emergence effect against ABUTH
# [3] = 504 h, read-out: Post-emergence effect against KCHSC in %
# [4] = Veronica persica, 504 h, read-out: Post-emergence effect against VERPE in %
# [5] = 504 h, 80 g/ha, read-out: Post-emergence effect against KCHSC in %
# [6] = Amaranthus retroflexus, 504 h, 320 g/ha, read-out: Post-emergence effect against AMARE
smiles,measurement,setting,value
COC(=O)C(OC)Oc1nn(-c2ncccc2F)c(-c2cncc(F)c2)c1C1CC1 (stereo not shown) [Example I-87],Post-emergence effect against MATIN in %,MATIN; 80 g/ha,80%
same,Post-emergence effect against MATIN in %,MATIN; 320 g/ha,80%
same,Post-emergence effect against SETVI in %,SETVI; 80 g/ha,90%
same,Post-emergence effect against SETVI in %,SETVI; 320 g/ha,90%
same,pest or weed control at 20 g/ha,SETVI; [1],90%
same,Post-emergence effect against PHBPU in %,PHBPU; 20 g/ha,90%
same,Post-emergence effect against PHBPU in %,PHBPU; 80 g/ha,90%
same,Post-emergence effect against PHBPU in %,PHBPU; 320 g/ha,90%
same,Post-emergence effect against ECHCG,"ECHCG; 20 g/ha, visual rating about 3 weeks after treatment",90%
same,Post-emergence effect against ECHCG in %,ECHCG; 80 g/ha,90%
same,Post-emergence effect against ECHCG in %,ECHCG; 320 g/ha,90%
same,Post-emergence effect against DIGSA,DIGSA; 320 g/ha,90%
same,pest or weed control at 80 g/ha,"DIGSA; Digitaria sanguinalis, 504 h, 80 g/ha, read-out: Post-emergence effect against DIGSA",80%
same,Post-emergence effect against LOLRI in %,LOLRI; 80 g/ha,90%
same,Post-emergence effect against LOLRI in %,LOLRI; 320 g/ha,90%
same,Post-emergence effect against ALOMY,ALOMY; 80 g/ha,90%
same,Post-emergence effect against ALOMY,ALOMY; 320 g/ha,90%
same,Post-emergence effect against ABUTH,ABUTH; 80 g/ha,90%
same,Post-emergence effect against ABUTH,ABUTH; 320 g/ha,90%
same,pest or weed control at 20 g/ha,ABUTH; [2],90%
same,Post-emergence effect against VIOTR in %,VIOTR; 20 g/ha,90%
same,Post-emergence effect against VIOTR in %,VIOTR; 80 g/ha,90%
same,Post-emergence effect against VIOTR in %,VIOTR; 320 g/ha,90%
same,Post-emergence effect against POLCO in %,POLCO; 20 g/ha,80%
same,Post-emergence effect against POLCO in %,POLCO; 80 g/ha,90%
same,Post-emergence effect against POLCO in %,POLCO; 320 g/ha,90%
same,Post-emergence effect against AVEFA,AVEFA; 80 g/ha,90%
same,Post-emergence effect against AVEFA,AVEFA; 320 g/ha,90%
same,Post-emergence effect against KCHSC in %,KCHSC; 80 g/ha,90%
same,Post-emergence effect against KCHSC in %,KCHSC; 320 g/ha,90%
same,pest or weed control at 20 g/ha,KCHSC; [3],90%
same,Post-emergence effect against VERPE in %,VERPE; 80 g/ha,90%
same,Post-emergence effect against VERPE in %,VERPE; 320 g/ha,90%
same,pest or weed control at 20 g/ha,VERPE; [4],80%
same,Post-emergence effect against AMARE,AMARE; 80 g/ha,80%
same,Post-emergence effect against AMARE,AMARE; 320 g/ha,90%
COC(Oc1nn(-c2ncccc2F)c(-c2ccc(F)nc2)c1C1CC1)C(=O)O (stereo not shown) [Example I-90],Post-emergence effect against SETVI in %,SETVI; 320 g/ha,90%
same,Post-emergence effect against PHBPU in %,PHBPU; 320 g/ha,90%
same,Post-emergence effect against ECHCG in %,ECHCG; 80 g/ha,90%
same,Post-emergence effect against ECHCG in %,ECHCG; 320 g/ha,90%
same,Post-emergence effect at 20 g/ha against ZEAMX in %,ZEAMX; 20 g/ha,0%
same,Post-emergence effect at 80 g/ha against ZEAMX in %,ZEAMX; 80 g/ha,0%
same,Post-emergence effect at 320 g/ha against ZEAMX in %,ZEAMX; 320 g/ha,0%
same,Post-emergence effect against DIGSA,DIGSA; 320 g/ha,80%
same,Post-emergence effect against LOLRI in %,LOLRI; 320 g/ha,90%
same,Post-emergence effect against ALOMY,ALOMY; 320 g/ha,90%
same,Post-emergence effect against ABUTH,ABUTH; 320 g/ha,90%
same,Post-emergence effect against VIOTR in %,VIOTR; 320 g/ha,90%
same,Post-emergence effect against POLCO in %,POLCO; 320 g/ha,80%
same,Post-emergence effect against AVEFA,AVEFA; 320 g/ha,90%
same,Post-emergence effect against KCHSC in %,KCHSC; 320 g/ha,90%
same,pest or weed control at 20 g/ha,KCHSC; [3],80%
same,pest or weed control at 80 g/ha,KCHSC; [5],90%
same,Post-emergence effect against VERPE in %,VERPE; 320 g/ha,80%
same,pest or weed control at 320 g/ha,AMARE; [6],80%
CCOC(=O)C(OC)Oc1nn(-c2ncccc2F)c(-c2cncc(F)c2)c1C1CC1 (stereo not shown) [Example I-113],pest or weed control at 80 g/ha,"MATIN; Tripleurospermum inodorum, 504 h, 80 g/ha, read-out: Post-emergence effect against MATIN in %",80%
same,pest or weed control at 320 g/ha,"MATIN; Tripleurospermum inodorum, 504 h, 320 g/ha, read-out: Post-emergence effect against MATIN in %",80%
same,pest or weed control at 20 g/ha,SETVI; [1],90%
same,pest or weed control at 80 g/ha,"SETVI; Setaria viridis, 504 h, 80 g/ha, read-out: Post-emergence effect against SETVI in %",90%
same,pest or weed control at 320 g/ha,"SETVI; Setaria viridis, 504 h, 320 g/ha, read-out: Post-emergence effect against SETVI in %",90%
same,pest or weed control at 20 g/ha,"PHBPU; Ipomoea purpurea, 504 h, 20 g/ha, read-out: Post-emergence effect against PHBPU in %",90%
same,pest or weed control at 80 g/ha,"PHBPU; Ipomoea purpurea, 504 h, 80 g/ha, read-out: Post-emergence effect against PHBPU in %",90%
same,pest or weed control at 320 g/ha,"PHBPU; Ipomoea purpurea, 504 h, 320 g/ha, read-out: Post-emergence effect against PHBPU in %",100%
same,pest or weed control at 20 g/ha,"ECHCG; Echinochloa crus-galli, 504 h, 20 g/ha, visual rating about 3 weeks after treatment, read-out: Post-emergence effect against ECHCG",90%
same,pest or weed control at 80 g/ha,"ECHCG; Echinochloa crus-galli, 504 h, 80 g/ha, read-out: Post-emergence effect against ECHCG in %",90%
same,pest or weed control at 320 g/ha,"ECHCG; Echinochloa crus-galli, 504 h, 320 g/ha, read-out: Post-emergence effect against ECHCG in %",90%
same,pest or weed control at 320 g/ha,"DIGSA; Digitaria sanguinalis, 504 h, 320 g/ha, read-out: Post-emergence effect against DIGSA",90%
same,pest or weed control at 80 g/ha,"LOLRI; Lolium rigidum, 504 h, 80 g/ha, read-out: Post-emergence effect against LOLRI in %",90%
same,pest or weed control at 320 g/ha,"LOLRI; Lolium rigidum, 504 h, 320 g/ha, read-out: Post-emergence effect against LOLRI in %",100%
same,pest or weed control at 80 g/ha,"ALOMY; Alopecurus myosuroides, 504 h, 80 g/ha, read-out: Post-emergence effect against ALOMY",100%
same,pest or weed control at 320 g/ha,"ALOMY; Alopecurus myosuroides, 504 h, 320 g/ha, read-out: Post-emergence effect against ALOMY",100%
same,pest or weed control at 20 g/ha,ABUTH; [2],90%
same,pest or weed control at 80 g/ha,"ABUTH; Abutilon theophrasti, 504 h, 80 g/ha, read-out: Post-emergence effect against ABUTH",90%
same,pest or weed control at 320 g/ha,"ABUTH; Abutilon theophrasti, 504 h, 320 g/ha, read-out: Post-emergence effect against ABUTH",90%
same,pest or weed control at 20 g/ha,"VIOTR; Viola tricolor, 504 h, 20 g/ha, read-out: Post-emergence effect against VIOTR in %",90%
same,pest or weed control at 80 g/ha,"VIOTR; Viola tricolor, 504 h, 80 g/ha, read-out: Post-emergence effect against VIOTR in %",90%
same,pest or weed control at 320 g/ha,"VIOTR; Viola tricolor, 504 h, 320 g/ha, read-out: Post-emergence effect against VIOTR in %",90%
same,pest or weed control at 80 g/ha,"POLCO; Fallopia convolvulus, 504 h, 80 g/ha, read-out: Post-emergence effect against POLCO in %",80%
same,pest or weed control at 320 g/ha,"POLCO; Fallopia convolvulus, 504 h, 320 g/ha, read-out: Post-emergence effect against POLCO in %",80%
same,pest or weed control at 20 g/ha,"AVEFA; Avena fatua, 504 h, 20 g/ha, read-out: Post-emergence effect against AVEFA",80%
same,pest or weed control at 80 g/ha,"AVEFA; Avena fatua, 504 h, 80 g/ha, read-out: Post-emergence effect against AVEFA",100%
same,pest or weed control at 320 g/ha,"AVEFA; Avena fatua, 504 h, 320 g/ha, read-out: Post-emergence effect against AVEFA",100%
same,pest or weed control at 20 g/ha,KCHSC; [3],90%
same,pest or weed control at 80 g/ha,KCHSC; [5],90%
same,pest or weed control at 320 g/ha,"KCHSC; 504 h, 320 g/ha, read-out: Post-emergence effect against KCHSC in %",90%
same,pest or weed control at 20 g/ha,VERPE; [4],80%
same,pest or weed control at 80 g/ha,"VERPE; Veronica persica, 504 h, 80 g/ha, read-out: Post-emergence effect against VERPE in %",90%
same,pest or weed control at 320 g/ha,"VERPE; Veronica persica, 504 h, 320 g/ha, read-out: Post-emergence effect against VERPE in %",90%
same,pest or weed control at 20 g/ha,"AMARE; Amaranthus retroflexus, 504 h, 20 g/ha, read-out: Post-emergence effect against AMARE",80%
same,pest or weed control at 80 g/ha,"AMARE; Amaranthus retroflexus, 504 h, 80 g/ha, read-out: Post-emergence effect against AMARE",80%
same,pest or weed control at 320 g/ha,AMARE; [6],80%

# — patent US20240391862A1, “(1,4,5-TRISUBSTITUTED-1H-PYRAZOL-3-YL)OXY-2-ALKOXY ALKYL ACIDS AND THEIR DERIVATIVES, THEIR SALTS AND THEIR USE AS HERBICIDAL AGENTS” (Bayer AKtiengesellschaft, priority 2021, published 2024)
